In article PMC11751439, “Targeting SRSF1 improves cancer immunotherapy by dually acting on CD8^+T and tumor cells” (Signal Transduction and Targeted Therapy, 2025):

Tests used:
[1] = target: T1, SRSF1 (recombinant SRSF1; serine arginine-rich splicing factor 1) (Homo sapiens, UniProt Q07955); assay: SPR; assay type: binding; conditions: purified SRSF1 variant; unit inferred, M taken from the wild-type value
T1 construct: recombinant purified SRSF1; RRM1 domain targeted in screening

[2] = target: T1, SRSF1 (recombinant SRSF1; serine arginine-rich splicing factor 1); assay: SPR (Biacore T100); assay type: binding

T1 sequence (Q07955 2-248): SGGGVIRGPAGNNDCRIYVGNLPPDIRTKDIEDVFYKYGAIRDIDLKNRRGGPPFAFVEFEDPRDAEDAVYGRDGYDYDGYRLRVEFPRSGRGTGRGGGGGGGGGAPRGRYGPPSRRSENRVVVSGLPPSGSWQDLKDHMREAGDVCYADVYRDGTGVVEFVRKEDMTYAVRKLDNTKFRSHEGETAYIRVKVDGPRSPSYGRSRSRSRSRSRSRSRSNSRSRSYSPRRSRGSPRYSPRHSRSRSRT

Kd [1]: 37.2 µM | Kd [2]: 5.13 µM
SMILES: O=C(/C=C/c1ccc(O)c(O)c1)c1ccc(O)c(O)c1O [TN2008]
